According to USRE29469E, “Hydroxylated 15-deoxy derivatives of 9-hydroxyl-13-trans-prostenoic acid” (American Cyanamid Company, priority 1976, dated 1977):

Tests used:
gastric acid secretion = experiment: Inhibition of gastric acid secretion (modified Shay rat procedure); assay type: in vivo, rats (male, CFE strain); settings: 3 hours; for inhibition in vivo at 50 mg/kg: intraduodenal dose 50 mg./kg of body weight
Experimental: The novel compounds of the present invention are also effective inhibitors of gastric acid secretion and of ulcer development in experimental animals, and thus are potentially valuable as agents for the control of gastric acid secretion and of gastric erosion and as anti-ulcer agents. Gastric acid secretion inhibitory action is usually measure by the "Shay rat" procedure^(1,2) with some modifications as follows.
The rats (male, CFE strain) were starved for 48 hours (water was given ad libitum) to permit evacuation of stomach contents. On the morning of the experiment, under ether anesthesia, the abdominal region was shaved and a midline incision (1-11/2 inches) was made with a scapel. With the help of a closed curved hemostate the duodenum was picked up. Upon getting the duodenum into view, fingers were used to pull the stomach through the opening, the stomach was then gently manipulated with fingers to rid the stomach of air and residual matter which were pushed through the pylorus. Two-5 inch sutures were drawn under the pyloric-duodenal puncture. A ligature, at the juncture, was formed with one of the threads. The second ligature was also formed but not tightened.
The test compound and the vehicle, usually 1 ml./100 g. body weight, were injected into the duodenum as close as possible to the first ligature. After injection the second ligature was tightened below the injection site to minimize leakage. The stomach was placed back through the opening into the abdominal cavity, the area of incision was washed with saline and the incision was closed with autoclips. (Occasionally, instead of an intraduodenal injection, animals were dosed by the oral or subcutaneous route. In the latter case, dosing was done 30 to 60 minutes before the operation.)
The abdominal cavity was exposed by cutting with scissors and the esophagus close to the stomach was clamped off with a hemostat, the stomach was removed by cutting above the hemostat (the .[.espphagus.]. .Iadd.esophagus .Iaddend.was cut) and between the two sutures. Extraneous .[.tisue.]. .Iadd.tissue .Iaddend.was removed, the stomach washed with saline and blotted on gauze. A slit was carefully made in the stomach which was held over a funnel and the contents were collected in a centrifuge tube. The stomach was further cut along the outside edge and turned inside out. Two ml. H2 O were used to wash the stomach contents into the respective centrifuged tube. The combined stomach contents and wash were then centrifuged out for 10 min. in the International Size 2 Centrifuge (setting at 30). The supernatant was collected, volume measured and recorded, 2 drops of a phenylphthalein indicator (1% in 95% ethanol) were added and the solution was titrated with 0.02N NaOH (or with 0.04N NaOH when large volumes of stomach contents were encountered to pH 8.4 (because of usual coloring of the stomach contents, phenolphthalein was only used to permit visual indication that the end point was near) and the amount of acid present was calculated.
Compounds inducing inhibition of gastric acid secretion of 20% or more were considered active. In a representative operation, and merely by way of illustration, the results obtained with this assay with typical compounds of the present invention are given in Table II below.

[1] = tested on: bronchospasms elicited by histamine; experiment: Bronchodilator activity (Konzett assay) against histamine; assay type: in vivo, guinea pigs; settings: guinea pig, three cumulative intravenous doses; for ED50: Cavia porcellus, read-out: ED50, spasmogenic agent histamine
Experimental: (§1) Bronchodilator activity was determined in guinea pigs against bronchospasms elicited by intravenous injections of 5-hydroxytryptamine, histamine or acetylcholine by the Konzett procedure, [See J. Lulling, P. Lievens, F. El Sayed and J. Prignot, Arzneimittel-Forschung, 18, 995 (1968).]
(§2) In the Table which follows bronchodilator activity for representative compounds of this invention against one or more of the three spasmogenic agents is expressed as an ED50 determined from the results obtained with three logarithemic cumulative intravenous dose.

[2] = tested on: bronchospasms elicited by 5-hydroxytryptamine; experiment: Bronchodilator activity (Konzett assay) against 5-hydroxytryptamine; assay type: in vivo, guinea pigs; settings: guinea pig, three cumulative intravenous doses; for ED50: Cavia porcellus, read-out: ED50, spasmogenic agent 5-hydroxytryptamine
Experimental: as §1, §2

[3] = tested on: ulcerogenic properties of indomethacin; experiment: Anti-ulcerogenic effect (protection against the ulcerogenic properties of indomethacin); assay type: in vivo, rats; settings: indomethacin 20 mg./kg s.c.
Experimental: The compounds of this invention also provide protection against the ulcerogenic properties of indomethacin. This assay was carried out in the following manner.
Rats were starved for 48 hours (water was given ad libitum). Indomethacin (20 mg./kg. of body weight) was administered by the subcutaneous route and one-half the dose of the test compound was administered by gavage at the same time. After 3 hours, the second half of the test compound was administered also by gavage. Five hours after the administration of indomethacin the animals were decapitated and the stomachs removed. The stomachs were washed with distilled water, blotted on gauze, cut along the larger curvature, and the contents rinsed with distilled water. The stomachs were spread out, pinned on a cork and visualized under magnifying glass for ulcers. The criteria for scoring of .[.ulers.]. .Iadd.ulcers .Iaddend. was as previously reported. [Abdel-Galil et al. Brit. J. Pharmac. Chemotherapy 33:1-14 (1968)]. […]
1- Petechial hemorrhage or pin point ulcers
3- Many ulcers, a few large
4- Many ulcers, mainly large
A difference of at least 0.7 unit between the scores for control animals (treated with indomethacin but not test compound) and animals treated with indomethacin and test compound is considered indicative of activity for the test compound. (Control animals treated with neither indomethacin nor test compound give scores of about 0.5-0.8.) The results obtained in this assay with typical compounds of the present invention are set forth in Table I below.

[4] = tested on: bronchospasms elicited by acetylcholine; experiment: Bronchodilator activity (Konzett assay) against acetylcholine; assay type: in vivo, guinea pigs; settings: Cavia porcellus, guinea pig, three cumulative intravenous doses, read-out: ED50, spasmogenic agent choline
Experimental: as §1, §2

[5] = Rattus norvegicus, read-out: Percent Inhibition
[6] = Rattus norvegicus, intraduodenal dose 100 mg./kg of body weight, read-out: Percent Inhibition
[7] = total oral dose 50 mg./kg, control score 2.3, scale 0 (normal stomach) to 4 (many ulcers, mainly large)

CCCCC(O)C/C=C/[C@H]1[C@H](O)CC(=O)[C@@H]1CCCCCCC(=O)O (relative stereo) [9-oxo-11α ,16-dihydroxy-13-trans-prostenoic acid]
inhibition in vivo at 0.4 mg/kg (gastric acid secretion; Rattus norvegicus, dose 0.4* mg./kg of body weight (asterisk not explained), read-out: Percent Inhibition): 27%
inhibition in vivo at 0.8 mg/kg (gastric acid secretion; Rattus norvegicus, dose 0.8* mg./kg of body weight (asterisk not explained), read-out: Percent Inhibition): 53%
inhibition in vivo at 1.6 mg/kg (gastric acid secretion; Rattus norvegicus, dose 1.6* mg./kg of body weight (asterisk not explained), read-out: Percent Inhibition): 79%
ED50 [1]: 0.166 mg/kg
ED50 [2]: 0.000607 mg/kg
Score treated ([3]; total oral dose 0.18 mg./kg, control score 3.0, scale 0-4): 2.5
Score treated ([3]; total oral dose 0.39 mg./kg, control score 3.0, scale 0-4): 2.0
Score treated ([3]; total oral dose 0.78 mg./kg, control score 3.0, scale 0-4): 1.5
Score treated ([3]; total oral dose 1.56 mg./kg, control score 2.5, scale 0-4): 1.0
Score treated ([3]; total oral dose 4.4 mg./kg, control score 3.0, scale 0-4): 1.0
Score treated ([3]; total oral dose 12.5 mg./kg, control score 3.0, scale 0-4): 1.0
ED50 [4]: 0.00042 mg/kg

O=C(O)CCCCCC[C@@H]1C(=O)CC[C@H]1/C=C/CCCCO (relative stereo) [20-hydroxy-9-oxo-18,19-dinor-13-trans-prostenoic acid]
inhibition in vivo at 50 mg/kg (gastric acid secretion; [5]): 21%
ED50 [1]: 2.22 mg/kg
ED50 [2]: 2.85 mg/kg
ED50 [4]: 10 mg/kg

CCOC(=O)CCCCCC[C@@H]1C(=O)CC[C@H]1/C=C/CCCCO (relative stereo) [ethyl 20-hydroxy-9-oxo-18,19-dinor-13trans-prostenoate]
inhibition in vivo at 100 mg/kg (gastric acid secretion; [6]): 49%

O=C(O)CCCCCC[C@H]1C(=O)CC[C@@H]1/C=C/CCCCCCO (relative stereo) [20-hydroxy-9-oxo-13-trans-prostenoic acid]
inhibition in vivo at 100 mg/kg (gastric acid secretion; [6]): 56%
ED50 [1]: 0.03 mg/kg
ED50 [2]: 0.117 mg/kg
ED50 [4]: 2.16 mg/kg

9-oxo-18-hydroxy-19-hydroxy-13-trans-prostenoic acid
Percent Inhibition (gastric acid secretion; intraduodenal dose 100 mg./kg of body weight): 28%
ED50, spasmogenic agent histamine [1]: 1.04 mg/kg
ED50, spasmogenic agent 5-hydroxytryptamine [2]: 1.19 mg/kg

O=C(O)CCCCCC[C@H]1C(=O)C=C[C@@H]1/C=C/CCCCCCO (relative stereo) [20-hydroxy-9-oxo-10,13-trans-prostadienoic acid]
inhibition in vivo at 50 mg/kg (gastric acid secretion; [5]): 91%
ED50 [1]: 2.28 mg/kg
ED50 [2]: 1.32 mg/kg

CCCCC(O)C/C=C/[C@H]1CCC(=O)[C@@H]1CCCCCCC(=O)O (relative stereo) [16-hydroxy-9-oxo-13-trans-prostenoic acid]
inhibition in vivo at 50 mg/kg (gastric acid secretion; [5]): 67%
ED50 [1]: 0.0346 mg/kg
Score treated [3, 7]: 1.2
ED50 [4]: 0.455 mg/kg

O=C(O)CCCCCC[C@H]1C(=O)C[C@@H](O)[C@@H]1/C=C/CCCCCCO (relative stereo) [11α ,20-dihydroxy-9-oxo-13-trans-prostenoic acid]
ED50 [1]: 0.077 mg/kg
ED50 [2]: 0.377 mg/kg
ED50 [4]: 2.34 mg/kg

CCCCC(O)CCC[C@H]1CCC(=O)[C@@H]1CCCCCCC(=O)O (stereo partly shown) [9-oxo-16-hydroxy-prostanoic acid, 16-hydroxy-9-oxo-prostanoic acid]
inhibition in vivo at 50 mg/kg (gastric acid secretion; [5]): 58%
ED50 [2]: 0.0927 mg/kg
Score treated [3, 7]: 1.3
ED50 [4]: 1.13 mg/kg

CCCC(O)CC/C=C/[C@H]1[C@H](O)CC(=O)[C@@H]1CCCCCCC(=O)O (relative stereo) [9-oxo-11α,17-dihydroxy-13-trans-prostenoic acid]
inhibition in vivo at 50 mg/kg (gastric acid secretion; [5]): 73%
ED50 [1]: 0.45 mg/kg
ED50 [2]: 0.235 mg/kg
Score treated ([3]; total oral dose 25 mg./kg, control score 2.7, scale 0-4): 1.3
ED50 [4]: 0.518 mg/kg
